One assay deals with D4 (FRβ) CHO cells. The experiment in a line: Cell proliferation assay, D4 CHO cells expressing FRβ. Conditions: for IC50: Cricetulus griseus, CHO, 96 h, 0-1000 nM, mean (standard error), 3-5 experiments; for RFC/FRβ Selectivity ratios: ratio of IC50 PC43-10 (RFC) to IC50 D4 (FRβ). Format: cell-based, Chinese hamster. The source says:
(§1) To assess the impact of 6-methyl substitutions on the bicyclic scaffolds of the pyrrolo[2,3-d]pyrimidine antifolates 1–4 on RFC transport vis-à-vis PCFT, FRα, and FRβ, we used a unique biological readout for transport activity. This involved proliferation assays with isogenic Chinese hamster ovary (CHO) sublines derived from RFC-, FR-, and PCFT-null MTXRIIOua^R2–4 CHO cells[39],[40] engineered to express the human FRα (RT16),[25] FRβ (D4),[25] RFC (PC43–10),[41] or PCFT (R2/PCFT4).[26],[42] As these CHO cell lines are genetically identical except for their folate transporters, differences in inhibition of cell proliferation by specific cytotoxic antifolates directly reflect transporter specificities.[19],[23]−[31],[42] […]
(§2) Reagents for biological studies. Leucovorin [(6R,S) 5-formyl tetrahydrofolate] and methotrexate (MTX) was provided by the Drug Development Branch, National Cancer Institute, Bethesda, MD. Other chemicals were obtained from commercial sources in the highest available purities. Pemetrexed (PMX; 1) [N-{4-[2- (2-amino-3,4-dihydro-4-oxo-7H-pyrrolo[2,3-d]pyrimidin-5-yl)ethyl]benzoyl-L-glutamic acid] (Alimta) was purchased from LC Laboratories (Woburn, MA). The syntheses of compounds 2 and 3 were previously described.7, 8 Additional chemicals were purchased from commercial sources in the highest available purities.
(§3) Cell Culture. The reduced folate carrier (RFC), proton-coupled folate transporter (SLC46A1; PCFT) and folate receptor (FR) α- and β-null Chinese hamster ovary (CHO) cell line MTXRIIOuaR2-49 was a gift from Dr. Wayne Flintoff (University of Western Ontario, London, ON). Four sublines were derived from the R2 subline by transfection with either RFC, PCFT, FRα, or FRβ, giving rise to PC43-10 (expresses human RFC), 10 R2/PCFT4 (expresses human PCFT),11 RT16 (expresses human FRα), 12 and D4 (expresses FRβ) cells. 12 Isogenic CHO sublines were routinely cultured in α-minimal essential medium (α-MEM) supplemented with 100 units/mL penicillin/100 μg/mL streptomycin, 2 mM L-glutamine and 10% bovine calf serum (Sigma-Aldrich). Transfected sublines of R2 cells were cultured in the presence of 1.5 mg/ml G418. […]
(§4) mM L-glutamine. Cell lines were tested for Mycoplasma by PCR using a Mycloplasma testing kit (Venor™ GeM Mycoplasma Detection Kit, Sigma). Frozen stocks were generated from authenticated Mycoplasma-free cultures.
(§5) For cell proliferation assays, CHO, KB, NCI-IGROV1 and IOSE 7576 cells were plated in 96-well dishes at densities ranging from 2500-5000 cells/well in 200 μL media and treated with a range of inhibitors spanning 0-1000 nM. Experiments with RT16, D4, IGROV1, IOSE 7576 and KB cells used folate-free RPMI 1640 (FF RPMI) media with 10% dialyzed fetal bovine serum and 100 units/mL penicillin/100 μg/mL streptomycin, supplemented with 2 nM leucovorin and 2 mM L-glutamine. FR-mediated drug uptake was assessed in parallel incubations including 200 nM folic acid. For R2/PCFT4, PC43-10 and R2 CHO cells, the medium was FF-RPMI supplemented with 10% dialyzed fetal bovine serum, 100 units/mL penicillin/100 μg/mL streptomycin, 25 nM leucovorin and 2 mM L-glutamine.
(§6) Cells were treated over a 96 h period at 37° C with 5% CO2 and relative cell numbers quantified using the CellTiter-blue cell viability assay (Promega, Madison, WI) and a fluorescence plate reader. Raw data were exported to Excel for analysis and the results were plotted using Graphpad Prism 6.0. Determinations of IC50s were made […]
(§7) assays have been previously described.7, 8, 11, 12, 15-20
(§8) Using KB cells, additional proliferation assays were performed with metabolite protection in folate- and glycine-free RPMI1640 with 10% dialyzed fetal bovine serum, 2 mM L-glutamine and antibiotics with 2 nM leucovorin to identify the targeted pathway and enzyme(s). 7, 8, 11, 12, 15-20 Inhibitory effects of the novel analogs on de novo thymidylate biosynthesis and de novo purine nucleotide biosynthesis were tested by incubating drugs with thymidine (10 μM) and adenosine (60 μM), respectively. […]

Assay [1] has as its system IOSE 7576 normal ovary cells. The experiment in a line: Cell proliferation assay, IOSE 7576 normal ovary cells. Format: cell-based, human. Conditions: for IC50: Homo sapiens, 96 h, 0-1000 nM, mean (standard error), 3-5 experiments.
Excerpt: For the tumor cells, except the des-methyl compound 4 with IGROV1 cells, all compounds were inhibitory. […]
Reagents for biological studies. Leucovorin [(6R,S) 5-formyl tetrahydrofolate] and methotrexate (MTX) was provided by the Drug Development Branch, National Cancer Institute, Bethesda, MD. Other chemicals were obtained from commercial sources in the highest available purities. Pemetrexed (PMX; 1) [N-{4-[2- (2-amino-3,4-dihydro-4-oxo-7H-pyrrolo[2,3-d]pyrimidin-5-yl)ethyl]benzoyl-L-glutamic acid] (Alimta) was purchased from LC Laboratories (Woburn, MA). The syntheses of compounds 2 and 3 were previously described.7, 8 Additional chemicals were purchased from commercial sources in the highest available purities. […]
KB nasopharyngeal carcinoma cells were obtained from the American Type Culture Collection (Manassas, VA) and IGROV1 (NCI-IGROV1) (passage 5) ovarian adenocarcinoma cells13 were obtained from the Division of Cancer Treatment and Diagnosis, National Cancer Institute (Frederick, MD). Normal ovary cells immortalized with SV40 (IOSE 7576)14 were obtained from the Canadian OvCaRe Cell Bank […]
(Vancouver, B.C). IGROV1, KB and IOSE 7576 cells were cultured in complete FF-RPMI with 10% fetal bovine serum and 100 units/mL penicillin/100 μg/mL streptomycin, and 2 mM L-glutamine. Cell lines were tested for Mycoplasma by PCR using a Mycloplasma testing kit (Venor™ GeM Mycoplasma Detection Kit, Sigma). Frozen stocks were generated from authenticated Mycoplasma-free cultures.
as §5, §6, §7
as §8, with “respectively. Incubation with glycine (130 µM) was used to assess the potential involvement of mitochondrial C1 targeted agents.15 To identify multiple metabolic targets, metabolite additions were added in combination.7, 8, 11, 12, 15-19 Finally, to distinguish targeting between the folate-dependent purine biosynthetic enzymes glycinamide ribonucleotide formyltransferase (GARFTase) and 5-aminoimidazole-4-carboxamide (AICA) ribonucleotide formyltransferase (AICARFTase), co-incubation experiments were performed using AICA hydrochloride (320 μM). 7, 8, 11, 12,” for “respectively.”
Statistics. The biological data reflect at least three experimental replicates. All statistical comparisons were performed using unpaired t-tests. Biological data are presented as mean values +/- standard errors using data without transformation.

Assay [2] has as its system R2/PCFT4 (PCFT) CHO cells. The experiment in a line: Cell proliferation assay, R2/PCFT4 CHO cells expressing human PCFT. To be noted: for IC50: Cricetulus griseus, R2/PCFT4, 96 h, 0-1000 nM, mean (standard error), 3-5 experiments; for RFC/PCFT Selectivity ratios: ratio of IC50 PC43-10 (RFC) to IC50 R2/PCFT4 (PCFT). Format: cell-based, Chinese hamster.
Excerpt: as §1, §2, §3, §4, §5, §6, §7, §8

The record followed here is PMC10726441, “Discovery of Tumor-Targeted 6-Methyl Substituted Pemetrexed and Related Antifolates with Selective Loss of RFC Transport” (ACS Medicinal Chemistry Letters, 2023).

Regarding `Nc1nc2[nH]cc(CCc3ccc(C(=O)N[C@@H](CCC(=O)O)C(=O)O)cc3)c2c(=O)[nH]1` [Compound 1, reference compound], the IC50 in the assay with D4 (FRβ) CHO cells worked out at 63.2 nM; in assay [1], 627 nM.

Take `Nc1nc2[nH]cc(CCCc3ccc(C(=O)N[C@@H](CCC(=O)O)C(=O)O)cc3)c2c(=O)[nH]1` [Compound 2]: the half-inhibitory concentration (IC50) in the assay with D4 (FRβ) CHO cells is 3.54 nM; in assay [1], 13.2 nM.

Take `Nc1nc2[nH]cc(CCc3ccc(C(=O)N[C@@H](CCC(=O)O)C(=O)O)s3)c2c(=O)[nH]1` [Compound 3]: the values for the IC50 (in assay [2]; in the assay with D4 (FRβ) CHO cells; in assay [1]) were 80.2 nM, 552 nM and 39.3 nM, respectively. The “RFC/PCFT Selectivity ratios” value in assay [2] is listed as 0.75. The “RFC/FRβ Selectivity ratios” value in the assay on D4 (FRβ) CHO cells is given as 0.11.

As for `Nc1nc2[nH]cc(CCc3ccc(C(=O)N[C@@H](CCC(=O)O)C(=O)O)c(F)c3)c2c(=O)[nH]1` [Compound 4], in assay [2], the IC50 is 25.9 nM and the “RFC/PCFT Selectivity ratios” value stood at 6.5. Further, in the assay with D4 (FRβ) CHO cells, the IC50 came out at 8.9 nM and the “RFC/FRβ Selectivity ratios” value was 19. In assay [1], the “inhibition of IOSE 7576 cells (in words)” value was “inactive” and the half-maximal inhibitory concentration (IC50) is greater than 1000 nM.

`Cc1[nH]c2nc(N)[nH]c(=O)c2c1CCc1ccc(C(=O)N[C@@H](CCC(=O)O)C(=O)O)cc1` [Compound 5]: in assay [2], the midpoint of inhibition, the IC50, lay at 7.66 nM and the “RFC/PCFT Selectivity ratios” value is greater than 130. Also, in the assay with D4 (FRβ) CHO cells, the concentration for half-maximal inhibition (IC50) stood at 5.7 nM and the “RFC/FRβ Selectivity ratios” value is greater than 175. Further, the IC50 in assay [1] is greater than 1000 nM.

On to `Cc1[nH]c2nc(N)[nH]c(=O)c2c1CCCc1ccc(C(=O)N[C@@H](CCC(=O)O)C(=O)O)cc1` [Compound 6], for which, in assay [2], the IC50 is 64.7 nM and the “RFC/PCFT Selectivity ratios” value is listed as greater than 15.5. In the assay with D4 (FRβ) CHO cells, the 50% inhibitory concentration (IC50) was determined as 2.61 nM and the “RFC/FRβ Selectivity ratios” value is listed as greater than 383. Also, in assay [1], the “inhibition of IOSE 7576 cells (in words)” value is given as “modestly inhibitory” and the IC50 was determined as 824 nM.

For the compound `Cc1[nH]c2nc(N)[nH]c(=O)c2c1CCc1ccc(C(=O)N[C@@H](CCC(=O)O)C(=O)O)s1` [Compound 7], in assay [2], the IC50 was 51.5 nM and the “RFC/PCFT Selectivity ratios” value is recorded as greater than 19.4. In addition, in the assay with D4 (FRβ) CHO cells, the midpoint of inhibition, the IC50, lay at 2.98 nM and the “RFC/FRβ Selectivity ratios” value was greater than 335. Besides, the half-maximal inhibitory concentration (IC50) in assay [1] is greater than 1000 nM.

In the case of `Cc1[nH]c2nc(N)[nH]c(=O)c2c1CCc1ccc(C(=O)N[C@@H](CCC(=O)O)C(=O)O)c(F)c1` [Compound 8], the half-inhibitory concentration (IC50) in assay [2] was greater than 1000 nM; with D4 (FRβ) CHO cells, 49 nM; in assay [1], greater than 1000 nM. The “RFC/FRβ Selectivity ratios” value with D4 (FRβ) CHO cells was greater than 20.

As a reminder, the IC50 is the midpoint of a concentration-inhibition curve.
